Test results published in patent US12071431B2, “Pyridin-sulfonamide compounds for the treatment of conditions related to interleukin 1 beta” (ALLINKY BIOPHARMA, priority 2018, dated 2024).

Key:
[1] = tested on: Non-Alcoholic Steatohepatitis (NASH) in male C57BL/6 mice; test: Treatment of non-alcoholic steatohepatitis (NASH) in male C57BL/6 mice (streptozotocin + high-fat diet); assay type: in vivo
Procedure: Example 15: Effect of Compound 5 and 7 in the Treatment of Non-Alcoholic Steatohepatitis (NASH) in Male C57BL/6 Mice
Timed pregnant mice (n=30) were selected for the study. The delivered pups were subcutaneously injected on the post-natal day 2 (PND-2) with 200 μg of Streptozotocin and were allowed to remain with the mother until they reached the weanling age. After weanling, the male pups were selected and fed with 60% kcal fat diet (Research Diet-D12492) for the next 2 weeks. All the animals were observed twice daily for clinical signs.
Mice were dosed with vehicle, test compounds and reference compound (elafibranor) twice daily morning (9.00 AM) and evening before the start of dark cycle (6:00 PM) from day 0 to 28.
Animal body weight measurements were made daily for the complete duration of the experiment.
Animals were dosed for 28 days (from week 6 to 10) with the test and reference compounds.
Blood glucose was estimated before the treatment start and on the termination day 28. Serum ALT and AST levels were measured from the plasma before the treatment start and on day 28.
Histopathology analysis including H&E staining, Masson's trichrome staining and Oil-Red-O (ORO) staining was performed for the liver tissues.
All the H&E stained tissue sections were examined by light microscopy. As per the below grading system (Kleiner et al., 2005) in 200× objective lens, NAFLD scoring was done for steatosis, lobular inflammation and hepatic ballooning.
All the Masson's trichrome stained tissue sections were examined by light microscopy in 100× objective lens. Randomly selected five fields (approx 684.85 μm×917.11 m per field) from each liver were subjected to collagen proportion area measurement by using Image Pro Premier 9.1 software. The percentage of collagen proportion area was calculated by dividing collagen tissue area by total tissue area.
All the Oil-Red-O stained tissue sections were examined by light microscopy in 100× objective lens. Randomly selected five fields (approximately 688.33 μm×922.45 μm per field) from each liver were subjected to measure stained area by using Image Pro Premier 9.1 software. The percentage of stained area was calculated by dividing lipid stained tissue area by total tissue area.

IL-1β = test: In vitro inhibition of IL-1β in human primary macrophages challenged with LPS (ELISA); assay type: cell-based; settings: Primary macrophage, 2 hours compound pre-treatment, 100 ng/mL LPS, 16 hours, read-out: IC50 (IL-Iβ inhibition)
Procedure: Example 12—In Vitro Inhibition of IL-1β in Human Primary Macrophages Challenged with LPS
5 mL of RPMI media without serum (1:1) was added to a sample of 5 mL of human whole blood in EDTA or sodium citrate and mixed well by inversion. 3 mL of Histopaque-1077 was added to a 15 mL conical centrifuge tube and brought to room temperature. Using a transfer pipette, 10 mL of the blood-RPMI mixture was carefully layered onto the Histopaque-1077 and was centrifuged at 400×g for exactly 30 minutes at room temperature.
After centrifugation, a pasteur pipette was used to aspirate the upper layer to within 0.5 cm of the opaque interface containing the mononuclear cells. The upper layer was discarded. With a Pasteur pipette, the opaque interface was carefully transferred to a clean conical centrifuge tube. 5 mL RPMI was added to the tube and mixed by inversion, followed by centrifugation at 250×g for exactly 10 minutes. The supernatant was aspirated and discarded.
The leukocyte pellet was re-suspended with 5 mL RPMI and mixed gently with a Pasteur pipette, followed by centrifugation at 250×g for exactly 10 minutes. The pellet was washed 3× with PBS and re-suspended in RPMI medium.
2×10^5 PBMCs at a total volume of 200 μL/well were plated into a 96-well plate and incubated for 4 hrs at 37° C. in a CO2 incubator to allow the monocytes to settle, leaving the lymphocytes in suspension. Following incubation, 100 μL were aspirated out of each well to ensure removal of the lymphocyte population.
The monocytes were differentiated to macrophages by addition of 200 ng/mL of recombinant human GM-CSF (4 mg/mL stock) and incubated at 37° C./5% CO2 for 6 days. The medium was changed every two days by removing half the volume of medium in the well and re-supplementing with fresh RPMI complete medium and recombinant human GM-CSF.
Following differentiation, the cells were treated in duplicates with a compound according to the invention in a total volume of 50 μL, maintaining a final DMSO percentile of 0.5%. The plate was transferred to an incubator maintained at 37° C./5% CO2 for 2 hours. The cells were stimulated with 100 ng/mL of LPS (4×) (1 mg/mL stock) in a total volume of 50 μL.
The plate was transferred to an incubator maintained at 37° C./5% CO2 for 16 hours.
• 1. Each well from a pre-coated ELISA plate was aspirated and washed with wash buffer (0.05% Tween 20 in PBS; pH 7.2-7.4) by filling each well with wash buffer (300 μL). The process was repeated two times for a total of three washes. The liquid was removed completely at each step. After the last wash, any remaining wash buffer was removed. • 2. Plates were blocked by adding 300 μL of block buffer (1% BSA in PBS) to each well and incubated at room temperature for 1 hour. • 3. The aspiration/wash as in step 1 was repeated. • 4. 100 μL of sample or standard prepared in reagent diluent (0.1% BSA, 0.05% Tween 20 in PBS pH7.2-7.4) was added. The wells were covered with an adhesive strip and incubated for 2 hours at room temperature. • 5. The aspiration/wash as in step 1 was repeated. • 6. 100 μL of detection antibody, diluted in reagent diluent, was added to each well. The wells were covered with a new adhesive strip and incubated for 2 hours at room temperature. • 7. The aspiration/wash as in step 1 was repeated. • 8. 100 μL of the working dilution (1:200 from the stock) and streptavidin-HRP was added to each well. The plate was covered and incubated for 20 minutes at room temperature. • 9. 100 μL of substrate solution (1:1 mixture of H2O2 and tetramethylbenzidine) was added to each well and incubated for 20 minutes at room temperature. • 10.50 μL of stop solution (2N H2SO4) was added to each well. The plate was tapped gently to ensure thorough mixing. • 11. The optical density of each well was determined immediately using a microplate reader (Spectramax Plus) set to 450 nm. Cytokine Viability Assessment […]

[2] = 3 mg/kg dose, twice daily, 28 days, H&E NAFLD scoring

CCOc1ccc(Oc2cc(S(=O)(=O)N(C)C)cnc2N2CCC(Oc3ccc(Cl)cc3)CC2)cc1 [Compound 7]
NAFLD activity score (NAS) ([1]; 3 mg/kg dose, twice daily, 28 days, FIG. 1): better NAS score than Elafibranor | lobular inflammation in the liver [1, 2]: significantly reduced | steatosis in the liver [1, 2]: significantly reduced | hepatomegaly and liver to body weight ratio ([1]; 28 days of treatment, FIG. 3): did not show any hepatomegaly and increase in liver to body weight ratio | Serum AST levels ([1]; after 28 days of treatment, FIG. 2): significantly reduced | IC50 (IL-1β): 27 nM
